From ChEMBL document CHEMBL5357033, “Discovery of Diverse Sesquiterpenoids from Crossiella cryophila through Genome Mining and NMR Tracking” (J Nat Prod, 2024)

How the values were obtained:
Staphylococcus capitis = assay: Antimicrobial activity against Staphylococcus capitis W7 assessed as reduction in microbial growth by broth microdilution method; type: functional
Micrococcus luteus = assay: Antimicrobial activity against Micrococcus luteus ATCC 4685 assessed as reduction in microbial growth by broth microdilution method; type: functional
Staphylococcus aureus [1] = assay: Antimicrobial activity against methicillin resistant Staphylococcus aureus assessed as reduction in microbial growth by broth microdilution method; type: functional
Enterococcus = assay: Antimicrobial activity against Vancomycin-resistant Enterococci assessed as reduction in microbial growth by broth microdilution method; type: functional
Staphylococcus aureus [2] = assay: Antimicrobial activity against Staphylococcus aureus LV-B1 assessed as reduction in microbial growth by broth microdilution method; type: functional
Bacillus subtilis = assay: Antimicrobial activity against Bacillus subtilis ATCC 6051 assessed as reduction in microbial growth by broth microdilution method; type: functional
Klebsiella pneumoniae = assay: Antimicrobial activity against Klebsiella pneumoniae W5 assessed as reduction in microbial growth by broth microdilution method; type: functional
Escherichia coli = assay: Antimicrobial activity against Escherichia coli CGMCC 1.3344 assessed as reduction in microbial growth by broth microdilution method; type: functional
Shigella sonnei = assay: Antimicrobial activity against Shigella sonnei ZD12 assessed as reduction in microbial growth by broth microdilution method; type: functional
Paracidovorax avenae = assay: Antimicrobial activity against Acidovorax avenae ATCC 19307 assessed as reduction in microbial growth by broth microdilution method; type: functional
Pseudomonas syringae = assay: Antimicrobial activity against Pseudomonas syringae ATCC-BAA-2502 assessed as reduction in microbial growth by broth microdilution method; type: functional
Xanthomonas oryzae = assay: Antimicrobial activity against Xanthomonas oryzae ATCC 35933 assessed as reduction in microbial growth by broth microdilution method; type: functional
A549 = assay: Anticancer activity against human A549 cells assessed as reduction in cell viability at 40 uM measured after 48 hrs by CCK-8 method relative to control; type: functional
HepG2 = assay: Anticancer activity against human HepG2 cells assessed as reduction in cell viability at 40 uM measured after 48 hrs by CCK-8 method relative to control; type: functional
SW480 = assay: Anticancer activity against human SW480 cells assessed as reduction in cell viability at 40 uM measured after 48 hrs by CCK-8 method relative to control; type: functional
MDA-MB-231 = assay: Anticancer activity against human MDA-MB-231 cells assessed as reduction in cell viability at 40 uM measured after 48 hrs by CCK-8 method relative to control; type: functional
MCF7 = assay: Anticancer activity against human MCF7 cells assessed as reduction in cell viability at 40 uM measured after 48 hrs by CCK-8 method relative to control; type: functional
RAW264.7 [3] = assay: Cytotoxicity against mouse RAW264.7 cells measured after 24hrs by CCK-8 method relative to control; type: toxicity, cell-based; parameters: concentration or dose not given beside the values; conditions: raw264.7, 24 h
RAW264.7 [4] = assay: Antiinflammatory activity in mouse RAW264.7 assessed as reduction in LPS-induced NO production incubated for 24 hrs by Griess method relative to control; type: functional; parameters: concentration or dose not given beside the values

Structure (SMILES)	MIC (Staphylococcus capitis)	MIC (Micrococcus luteus)	MIC (Staphylococcus aureus [1])	MIC (Enterococcus)	MIC (Staphylococcus aureus [2])	MIC (Bacillus subtilis)	MIC (Klebsiella pneumoniae)	MIC (Escherichia coli)	MIC (Shigella sonnei)	MIC (Paracidovorax avenae)	MIC (Pseudomonas syringae)	MIC (Xanthomonas oryzae)	Activity (A549)	Activity (HepG2)	Activity (SW480)	Activity (MDA-MB-231)	Activity (MCF7)	Activity (RAW264.7 [3])	Activity (RAW264.7 [4])
CC1(C)[C@H]2/C=C(/C=O)CC[C@@H]3O[C@@]3(C)CC[C@@H]21	> 128 µg/mL	> 128 µg/mL	> 128 µg/mL	> 128 µg/mL	> 128 µg/mL	> 128 µg/mL	> 128 µg/mL	> 128 µg/mL	> 128 µg/mL	> 128 µg/mL	> 128 µg/mL	> 128 µg/mL	2.4%	-4.51%	-21.6%	-2.33%	16.05%	81.51%	-2.46%
C/C1=C\CC/C(C=O)=C\[C@H]2[C@H](C[C@H]1O)C2(C)C	> 128 µg/mL	> 128 µg/mL	> 128 µg/mL	> 128 µg/mL	> 128 µg/mL	> 128 µg/mL	> 128 µg/mL	> 128 µg/mL	> 128 µg/mL	> 128 µg/mL	> 128 µg/mL	> 128 µg/mL	-2.39%	-8.84%	-28.68%	-11.44%	1.32%	89.61%	1.33%
CC1=C[C@@H]2[C@@H](C(C)C)CC[C@@](C)(O)[C@@H]2C[C@@H]1O	> 128 µg/mL	> 128 µg/mL	> 128 µg/mL	> 128 µg/mL	> 128 µg/mL	> 128 µg/mL	> 128 µg/mL	> 128 µg/mL	> 128 µg/mL	> 128 µg/mL	> 128 µg/mL	> 128 µg/mL	0.28%	-1.38%	-7.85%	-7.21%	6.01%	82.75%	-1.33%
C[C@H]1C[C@H](O)[C@@H]2[C@H]3[C@H]1OC(C)(C)[C@@H]3CC[C@@]2(C)O	> 128 µg/mL	> 128 µg/mL	> 128 µg/mL	> 128 µg/mL	> 128 µg/mL	> 128 µg/mL	> 128 µg/mL	> 128 µg/mL	> 128 µg/mL	> 128 µg/mL	> 128 µg/mL	> 128 µg/mL	0.07%	-8.63%	-5.32%	1.66%	8.24%	84.88%	0.67%
CC1=C[C@@H]2[C@@H](C(C)C)CC[C@@](C)(O)[C@@H]2CC1	> 128 µg/mL	> 128 µg/mL	> 128 µg/mL	> 128 µg/mL	> 128 µg/mL	> 128 µg/mL	> 128 µg/mL	> 128 µg/mL	> 128 µg/mL	> 128 µg/mL	> 128 µg/mL	> 128 µg/mL	12.06%	4.12%	6.82%	32.06%	18.49%	90.3%	-4.95%
CC1(C)[C@H]2[C@@H]1CC[C@@]1(C)[C@H](O)CC[C@](O)(CO)[C@H]21	> 128 µg/mL	> 128 µg/mL	> 128 µg/mL	> 128 µg/mL	> 128 µg/mL	> 128 µg/mL	> 128 µg/mL	> 128 µg/mL	> 128 µg/mL	> 128 µg/mL	> 128 µg/mL	> 128 µg/mL	0.34%	3.99%	7.24%	27.39%	11.1%	81.69%	-3.05%
CC1(C)[C@H]2/C=C(/CO)CC[C@@H]3O[C@@]3(C)CC[C@@H]21	> 128 µg/mL	> 128 µg/mL	> 128 µg/mL	> 128 µg/mL	> 128 µg/mL	> 128 µg/mL	> 128 µg/mL	> 128 µg/mL	> 128 µg/mL	> 128 µg/mL	> 128 µg/mL	> 128 µg/mL	13%	-11.68%	-7.55%	4.47%	14.53%	8.25%	-6.95%
